pEC50: −log10 of the molar value.
Legend:
human TLR 8 protein = biological target: T1, human TLR 8 protein (Homo sapiens, UniProt Q9NR97); experiment: TLR8 stimulation determined using HEK-Blue Detection; assay type: cell-based; details: HEK-Blue hTLR8 cells, 16 hr, relative to Resiquimod or Motolimod maximum
T1 construct: expressed in transfected cells; host or cells: HEK293 (HEK-Blue hTLR8)
T1 sequence (Q9NR97 27-1041): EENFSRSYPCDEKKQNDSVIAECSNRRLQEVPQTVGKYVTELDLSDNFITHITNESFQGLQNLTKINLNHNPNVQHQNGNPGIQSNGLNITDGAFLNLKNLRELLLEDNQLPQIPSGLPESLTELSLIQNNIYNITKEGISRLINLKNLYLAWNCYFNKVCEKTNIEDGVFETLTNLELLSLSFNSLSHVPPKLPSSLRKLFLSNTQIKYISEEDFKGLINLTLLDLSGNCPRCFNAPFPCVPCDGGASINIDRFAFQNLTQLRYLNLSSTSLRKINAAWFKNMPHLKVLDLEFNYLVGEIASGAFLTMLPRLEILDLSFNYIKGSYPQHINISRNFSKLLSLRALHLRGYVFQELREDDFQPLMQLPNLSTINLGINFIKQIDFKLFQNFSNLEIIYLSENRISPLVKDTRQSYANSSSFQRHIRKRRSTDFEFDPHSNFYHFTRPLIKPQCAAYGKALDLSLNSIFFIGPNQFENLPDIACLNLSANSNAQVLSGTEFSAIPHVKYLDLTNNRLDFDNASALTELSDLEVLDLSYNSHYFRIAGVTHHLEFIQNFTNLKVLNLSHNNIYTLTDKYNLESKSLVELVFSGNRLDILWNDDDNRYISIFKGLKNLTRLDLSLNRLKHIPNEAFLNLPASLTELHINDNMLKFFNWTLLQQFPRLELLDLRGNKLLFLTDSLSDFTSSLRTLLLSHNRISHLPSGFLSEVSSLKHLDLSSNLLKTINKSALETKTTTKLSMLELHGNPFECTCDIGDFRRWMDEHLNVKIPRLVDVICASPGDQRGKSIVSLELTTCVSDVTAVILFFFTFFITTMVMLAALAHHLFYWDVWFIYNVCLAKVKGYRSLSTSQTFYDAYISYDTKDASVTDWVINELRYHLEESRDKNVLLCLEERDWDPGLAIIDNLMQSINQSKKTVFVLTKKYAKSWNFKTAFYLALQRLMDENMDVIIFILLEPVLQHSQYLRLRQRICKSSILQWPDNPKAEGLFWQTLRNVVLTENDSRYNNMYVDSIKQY
Summary of the method: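 HEK-Blue hTLR8 cells with NF-κB/AP-1-driven SEAP reporter, 40000 cells/well, treated with 10-point dilutions (1 nM-10 uM final, 0.1% DMSO) for 16 hr at 37° C. SEAP read as OD 620-655 nm. EC50 derived from percent of maximum activation set by Resiquimod or Motolimod.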

human TLR7 = biological target: T2, human TLR7 (Homo sapiens, UniProt Q9NYK1); experiment: TLR7 stimulation determined using HEK-Blue Detection; assay type: cell-based; set-up: expressed in transfected cells; host or cells: HEK293 (HEK-Blue hTLR7); details: HEK-Blue hTLR7 cells, HEK-Blue Detection (A77-A124), 16 hr, relative to Resiquimod maximum
T2 sequence (Q9NYK1 27-1049): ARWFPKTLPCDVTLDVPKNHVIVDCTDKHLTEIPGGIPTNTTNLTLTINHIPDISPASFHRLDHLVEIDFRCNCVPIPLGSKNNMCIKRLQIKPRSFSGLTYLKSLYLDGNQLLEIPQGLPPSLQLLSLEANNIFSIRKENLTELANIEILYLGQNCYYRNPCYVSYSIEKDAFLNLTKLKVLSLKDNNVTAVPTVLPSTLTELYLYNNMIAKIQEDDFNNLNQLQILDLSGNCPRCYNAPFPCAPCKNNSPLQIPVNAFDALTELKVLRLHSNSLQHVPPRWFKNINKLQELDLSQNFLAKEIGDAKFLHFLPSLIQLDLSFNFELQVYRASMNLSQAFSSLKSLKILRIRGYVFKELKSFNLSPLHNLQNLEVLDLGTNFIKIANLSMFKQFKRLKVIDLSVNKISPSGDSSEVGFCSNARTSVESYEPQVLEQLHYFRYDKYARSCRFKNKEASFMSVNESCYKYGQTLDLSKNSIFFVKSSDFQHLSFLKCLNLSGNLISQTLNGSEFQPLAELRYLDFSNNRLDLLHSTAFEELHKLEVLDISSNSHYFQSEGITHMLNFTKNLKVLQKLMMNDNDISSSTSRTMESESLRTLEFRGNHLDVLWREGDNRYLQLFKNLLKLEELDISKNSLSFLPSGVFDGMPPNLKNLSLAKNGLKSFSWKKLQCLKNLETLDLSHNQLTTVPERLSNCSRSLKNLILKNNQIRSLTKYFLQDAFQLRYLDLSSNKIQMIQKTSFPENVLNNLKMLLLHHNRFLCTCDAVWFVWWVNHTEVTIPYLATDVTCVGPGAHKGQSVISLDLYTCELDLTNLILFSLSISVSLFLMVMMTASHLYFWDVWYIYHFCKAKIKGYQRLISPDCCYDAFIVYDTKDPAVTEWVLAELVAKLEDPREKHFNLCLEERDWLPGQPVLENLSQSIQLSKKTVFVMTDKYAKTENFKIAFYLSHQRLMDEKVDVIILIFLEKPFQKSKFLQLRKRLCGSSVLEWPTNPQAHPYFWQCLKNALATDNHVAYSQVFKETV
Summary of the method: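 HEK-Blue hTLR7 cells (HEK293 with NF-κB/AP-1-driven SEAP reporter), 40000 cells/well, treated with 10-point dilutions from 0.04 nM to 10 μM final in 0.1% DMSO for 16 h at 37° C. SEAP read as OD 620-655 nm; EC50 derived from % of maximum activation with resiquimod.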

Row | Structure (SMILES) | pEC50 (human TLR 8 protein) | pEC50 (human TLR7)
1 | CCCC(CCO)Oc1nc(N)c2ncc(Cc3cccc(OCCNC)c3OC)n2n1 (single isomer, unassigned) [Compound A118, (R or S)-3-((4-amino-7-(2-methoxy-3-(2-(methylamino)ethoxy)benzyl)imidazo[2,1-f][1,2,4]triazin-2-yl)oxy)hexan-1-ol] | 7.68 | 7.96
2 | CCCC(C)Oc1nc(N)c2ncc(Cc3cnc(OCCNC)c(C)c3)n2n1 (stereo not drawn) [Compound A78, 7-((5-methyl-6-(2-(methylamino)ethoxy)pyridin-3-yl)methyl)-2-(pentan-2-yloxy)imidazo[2,1-f][1,2,4]triazin-4-amine] | 5.95 | 7.64
3 | CCCC(CCO)Oc1nc(N)c2ncc(Cc3ccc(OCCNC)nc3OC)n2n1 (stereo not drawn) [Compound A96, 3-((4-amino-7-((2-methoxy-6-(2-(methylamino)ethoxy)pyridin-3-yl)methyl)imidazo[2,1-f][1,2,4]triazin-2-yl)oxy)hexan-1-ol] | 7.54 | 8.37
4 | CCCC(CCO)Oc1nc(N)c2ncc(Cc3ccc(OCCNC)cc3F)n2n1 (stereo not drawn) [Compound A97, 3-((4-amino-7-(2-fluoro-4-(2-(methylamino)ethoxy)benzyl)imidazo[2,1-f][1,2,4]triazin-2-yl)oxy)hexan-1-ol] | 8.00 | 9.00
5 | CCCC(CCO)Oc1nc(N)c2ncc(Cc3ccc(CCNC)cc3)n2n1 (stereo not drawn) [Compound A95, 3-((4-amino-7-(4-(2-(methylamino)ethyl)benzyl)imidazo[2,1-f][1,2,4]triazin-2-yl)oxy)hexan-1-ol] | 7.72 | 8.10
6 | CCCC(CCO)Oc1nc(N)c2ncc(Cc3ccc(OCCNC)cc3Cl)n2n1 (single isomer, unassigned) [Compound A108, (R or S)-3-((4-amino-7-(2-chloro-4-(2-(methylamino)ethoxy)benzyl)imidazo[2,1-f][1,2,4]triazin-2-yl)oxy)hexan-1-ol] | 7.68 | 9.10

— patent US12281119B2, “Imidazo[2,1-f][1,2,4]triazin-4-amine derivatives as TLR7 agonist” (BEIGENE, LTD., priority 2019, dated 2025)
